Laboratory results taken from ChEMBL document CHEMBL3046418, “Synthesis and Herbicidal Activity of Sulfonylurea Compounds with Imidazo [1, 2-a] pyridine Moiety” (2001).

Assays:
Format in all cases: functional
Bromus tectorum [1] = assay: Herbicidal activity against Bromus tectorum at 125 g/ha after 3 weeks by post-emergence greenhouse test
Avena fatua [2] = assay: Herbicidal activity against Avena fatua at 250 g/ha after 3 weeks by post-emergence greenhouse test
Avena fatua [3] = assay: Herbicidal activity against Avena fatua at 500 g/ha after 3 weeks by post-emergence greenhouse test
Bromus tectorum [4] = assay: Herbicidal activity against Bromus tectorum at 500 g/ha after 3 weeks by post-emergence greenhouse test
Mutarda arvensis [5] = assay: Herbicidal activity against Sinapis arvensis at 500 g/ha after 3 weeks by post-emergence greenhouse test
Mutarda arvensis [6] = assay: Herbicidal activity against Sinapis arvensis at 250 g/ha after 3 weeks by post-emergence greenhouse test
Triticum aestivum [7] = assay: Phytotoxic activity against Triticum aestivum (wheat) at 250 g/ha after 3 weeks by post-emergence greenhouse test
Stellaria media [8] = assay: Herbicidal activity against Stellaria media at 250 g/ha after 3 weeks by post-emergence greenhouse test
Mutarda arvensis [9] = assay: Herbicidal activity against Sinapis arvensis at 125 g/ha after 3 weeks by post-emergence greenhouse test
Matricaria chamomilla [10] = assay: Herbicidal activity against Matricaria chamomilla at 500 g/ha after 3 weeks by post-emergence greenhouse test
Stellaria media [11] = assay: Herbicidal activity against Stellaria media at 500 g/ha after 3 weeks by post-emergence greenhouse test
Triticum aestivum [12] = assay: Phytotoxic activity against Triticum aestivum (wheat) at 125 g/ha after 3 weeks by post-emergence greenhouse test
Alopecurus myosuroides [13] = assay: Herbicidal activity against Alopecurus myosuroides at 125 g/ha after 3 weeks by post-emergence greenhouse test
Alopecurus myosuroides [14] = assay: Herbicidal activity against Alopecurus myosuroides at 250 g/ha after 3 weeks by post-emergence greenhouse test
Avena fatua [15] = assay: Herbicidal activity against Avena fatua at 125 g/ha after 3 weeks by post-emergence greenhouse test
Triticum aestivum [16] = assay: Phytotoxic activity against Triticum aestivum (wheat) at 500 g/ha after 3 weeks by post-emergence greenhouse test
Matricaria chamomilla [17] = assay: Herbicidal activity against Matricaria chamomilla at 250 g/ha after 3 weeks by post-emergence greenhouse test
Matricaria chamomilla [18] = assay: Herbicidal activity against Matricaria chamomilla at 125 g/ha after 3 weeks by post-emergence greenhouse test
Alopecurus myosuroides [19] = assay: Herbicidal activity against Alopecurus myosuroides at 500 g/ha after 3 weeks by post-emergence greenhouse test
Bromus tectorum [20] = assay: Herbicidal activity against Bromus tectorum at 250 g/ha after 3 weeks by post-emergence greenhouse test
Stellaria media [21] = assay: Herbicidal activity against Stellaria media at 125 g/ha after 3 weeks by post-emergence greenhouse test
Mutarda arvensis [22] = assay: Herbicidal activity against Sinapis arvensis at 400 g/ha after 3 weeks by post-emergence greenhouse test
Bromus tectorum [23] = assay: Herbicidal activity against Bromus tectorum at 400 g/ha after 3 weeks by post-emergence greenhouse test
Alopecurus myosuroides [24] = assay: Herbicidal activity against Alopecurus myosuroides at 100 g/ha after 3 weeks by post-emergence greenhouse test
Stellaria media [25] = assay: Herbicidal activity against Stellaria media at 100 g/ha after 3 weeks by post-emergence greenhouse test
Mutarda arvensis [26] = assay: Herbicidal activity against Sinapis arvensis at 100 g/ha after 3 weeks by post-emergence greenhouse test
Stellaria media [27] = assay: Herbicidal activity against Stellaria media at 400 g/ha after 3 weeks by post-emergence greenhouse test
Matricaria chamomilla [28] = assay: Herbicidal activity against Matricaria chamomilla after 4 weeks by pre-emergence greenhouse test; parameters: concentration or dose not given beside the values
Triticum aestivum [29] = assay: Phytotoxic activity against Triticum aestivum (wheat) after 3 weeks by post-emergence greenhouse test; parameters: concentration or dose not given beside the values
Chenopodium album [30] = assay: Herbicidal activity against Chenopodium album at 25 g/ha after 3 weeks by post-emergence greenhouse test
Avena fatua [31] = assay: Herbicidal activity against Avena fatua at 400 g/ha after 3 weeks by post-emergence greenhouse test
Mutarda arvensis [32] = assay: Herbicidal activity against Sinapis arvensis after 4 weeks by pre-emergence greenhouse test; parameters: concentration or dose not given beside the values
Chenopodium album [33] = assay: Herbicidal activity against Chenopodium album at 400 g/ha after 3 weeks by post-emergence greenhouse test
Avena fatua [34] = assay: Herbicidal activity against Avena fatua at 25 g/ha after 3 weeks by post-emergence greenhouse test
Matricaria chamomilla [35] = assay: Herbicidal activity against Matricaria chamomilla at 400 g/ha after 3 weeks by post-emergence greenhouse test
Triticum aestivum [36] = assay: Phytotoxic activity against Triticum aestivum (wheat) at 400 g/ha after 3 weeks by post-emergence greenhouse test
Alopecurus myosuroides [37] = assay: Herbicidal activity against Alopecurus myosuroides after 4 weeks by pre-emergence greenhouse test; parameters: concentration or dose not given beside the values
Mutarda arvensis [38] = assay: Herbicidal activity against Sinapis arvensis after 3 weeks by post-emergence greenhouse test; parameters: concentration or dose not given beside the values
Bromus tectorum [39] = assay: Herbicidal activity against Bromus tectorum after 4 weeks by pre-emergence greenhouse test; parameters: concentration or dose not given beside the values
Matricaria chamomilla [40] = assay: Herbicidal activity against Matricaria chamomilla at 25 g/ha after 3 weeks by post-emergence greenhouse test
Alopecurus myosuroides [41] = assay: Herbicidal activity against Alopecurus myosuroides at 400 g/ha after 3 weeks by post-emergence greenhouse test
Stellaria media [42] = assay: Herbicidal activity against Stellaria media after 4 weeks by pre-emergence greenhouse test; parameters: concentration or dose not given beside the values
Avena fatua [43] = assay: Herbicidal activity against Avena fatua after 4 weeks by pre-emergence greenhouse test; parameters: concentration or dose not given beside the values
Avena fatua [44] = assay: Herbicidal activity against Avena fatua at 100 g/ha after 3 weeks by post-emergence greenhouse test
Triticum aestivum [45] = assay: Phytotoxic activity against Triticum aestivum (wheat) after 4 weeks by pre-emergence greenhouse test
Triticum aestivum [46] = assay: Phytotoxic activity against Triticum aestivum (wheat) at 25 g/ha after 3 weeks by post-emergence greenhouse test
Bromus tectorum [47] = assay: Herbicidal activity against Bromus tectorum after 3 weeks by post-emergence greenhouse test; parameters: concentration or dose not given beside the values
Chenopodium album [48] = assay: Herbicidal activity against Chenopodium album after 4 weeks by pre-emergence greenhouse test; parameters: concentration or dose not given beside the values
Alopecurus myosuroides [49] = assay: Herbicidal activity against Alopecurus myosuroides at 25 g/ha after 3 weeks by post-emergence greenhouse test
Mutarda arvensis [50] = assay: Herbicidal activity against Sinapis arvensis at 25 g/ha after 3 weeks by post-emergence greenhouse test
Bromus tectorum [51] = assay: Herbicidal activity against Bromus tectorum at 25 g/ha after 3 weeks by post-emergence greenhouse test
Matricaria chamomilla [52] = assay: Herbicidal activity against Matricaria chamomilla after 3 weeks by post-emergence greenhouse test; parameters: concentration or dose not given beside the values
Avena fatua [53] = assay: Herbicidal activity against Avena fatua after 3 weeks by post-emergence greenhouse test; parameters: concentration or dose not given beside the values
Stellaria media [54] = assay: Herbicidal activity against Stellaria media at 25 g/ha after 3 weeks by post-emergence greenhouse test
Alopecurus myosuroides [55] = assay: Herbicidal activity against Alopecurus myosuroides after 3 weeks by post-emergence greenhouse test; parameters: concentration or dose not given beside the values
Matricaria chamomilla [56] = assay: Herbicidal activity against Matricaria chamomilla at 100 g/ha after 3 weeks by post-emergence greenhouse test
Stellaria media [57] = assay: Herbicidal activity against Stellaria media after 3 weeks by post-emergence greenhouse test; parameters: concentration or dose not given beside the values
Chenopodium album [58] = assay: Herbicidal activity against Chenopodium album at 100 g/ha after 3 weeks by post-emergence greenhouse test
Bromus tectorum [59] = assay: Herbicidal activity against Bromus tectorum at 100 g/ha after 3 weeks by post-emergence greenhouse test
Chenopodium album [60] = assay: Herbicidal activity against Chenopodium album after 3 weeks by post-emergence greenhouse test; parameters: concentration or dose not given beside the values
Triticum aestivum [61] = assay: Phytotoxic activity against Triticum aestivum (wheat) at 100 g/ha after 3 weeks by post-emergence greenhouse test

Structure (SMILES): CSc1nnc(C(C)(C)C)c(=O)n1N [METRIBUZIN]
- Activity (Bromus tectorum [1]): 1%
- Activity (Avena fatua [2]): 1%
- Activity (Avena fatua [3]): 76%
- Activity (Bromus tectorum [4]): 88%
- Activity (Mutarda arvensis [5]): 100%
- Activity (Mutarda arvensis [6]): 100%
- Phytotoxicity (Triticum aestivum [7]): 1%
- Activity (Stellaria media [8]): 100%
- Activity (Mutarda arvensis [9]): 100%
- Activity (Matricaria chamomilla [10]): 100%
- Activity (Stellaria media [11]): 100%
- Phytotoxicity (Triticum aestivum [12]): 0%
- Activity (Alopecurus myosuroides [13]): 51%
- Activity (Alopecurus myosuroides [14]): 51%
- Activity (Avena fatua [15]): 0%
- Phytotoxicity (Triticum aestivum [16]): 1%
- Activity (Matricaria chamomilla [17]): 100%
- Activity (Matricaria chamomilla [18]): 51%
- Activity (Alopecurus myosuroides [19]): 100%
- Activity (Bromus tectorum [20]): 1%
- Activity (Stellaria media [21]): 88%

Structure (SMILES): CCS(=O)(=O)c1nc2ccccn2c1S(=O)(=O)NC(=O)Nc1nc(OC)cc(OC)n1 [SULFOSULFURON]
- Activity (Mutarda arvensis [22]): 88%
- Activity (Bromus tectorum [23]): 88%
- Activity (Alopecurus myosuroides [24]): 88%
- Activity (Stellaria media [25]): 88%
- Activity (Mutarda arvensis [26]): 88%
- Activity (Stellaria media [27]): 88%
- Activity (Matricaria chamomilla [28]): 88%
- Activity (Triticum aestivum [29]): 0%
- Activity (Chenopodium album [30]): 1%
- Activity (Avena fatua [31]): 0%
- Activity (Mutarda arvensis [32]): 88%
- Activity (Chenopodium album [33]): 51%
- Activity (Avena fatua [34]): 88%
- Activity (Matricaria chamomilla [35]): 88%
- Phytotoxicity (Triticum aestivum [36]): 0%
- Activity (Alopecurus myosuroides [37]): 88%
- Activity (Mutarda arvensis [38]): 88%
- Activity (Bromus tectorum [39]): 88%
- Activity (Matricaria chamomilla [40]): 88%
- Activity (Alopecurus myosuroides [41]): 88%
- Activity (Stellaria media [42]): 88%
- Activity (Avena fatua [43]): 51%
- Activity (Avena fatua [44]): 88%
- Phytotoxicity (Triticum aestivum [45]): 0%
- Phytotoxicity (Triticum aestivum [46]): 0%
- Activity (Bromus tectorum [47]): 88%
- Activity (Chenopodium album [48]): 88%
- Activity (Alopecurus myosuroides [49]): 88%
- Activity (Mutarda arvensis [50]): 88%
- Activity (Bromus tectorum [51]): 88%
- Activity (Matricaria chamomilla [52]): 88%
- Activity (Avena fatua [53]): 88%
- Activity (Stellaria media [54]): 88%
- Activity (Alopecurus myosuroides [55]): 88%
- Activity (Matricaria chamomilla [56]): 88%
- Activity (Stellaria media [57]): 88%
- Activity (Chenopodium album [58]): 1%
- Activity (Bromus tectorum [59]): 88%
- Activity (Chenopodium album [60]): 51%
- Phytotoxicity (Triticum aestivum [61]): 0%
